Laboratory results published in patent publication US20250353825A1, “CANNABICYCLOL DERIVATIVES AND PREPARATION METHODS THEREOF” (priority 2023, published 2025).
Values after ≈ are worked out from the molar mass of the structure shown. Like-named read-outs stand apart in the source and are kept apart here.

Tests used:
Assay type in all cases: cell-based
GSC-3 (3#-GSC) = assay: MTS cell viability assay, glioblastoma stem cells GSC-3 (3#-GSC); conditions: for IC50: GSC-3, Table 8, cancer stem cells, preferred compounds, read-out: IC50 3#-GSC; for selective anti-glioma stem cell viability: judged in words from preliminary viability screening against 3#-GSC, 293T and U251
Experimental: (§1) Primary viability screening: (1) the synthesized compounds 3a to 13d were respectively dissolved in DMSO to prepare a 40 μg/mL cannabicyclol and cannabicyclol derivative solutions.
(§2) (2) A control group: a 200 μL DMSO solvent.
(§3) (3) The solutions of compounds 3a to 13d were diluted in a twofold gradient to obtain cannabicyclol and cannabicyclol derivative solutions at concentrations of 40 μg/mL, 20 μg/mL, 10 μg/mL, 5 μg/mL, 2.5 μg/mL, 1.25 μg/mL, and 0.625 μg/mL, and 0.3125 μg/mL, respectively.
(§4) (4) Three glioblastoma stem cells (GSC-3, GSC-12, and GSC-18), three pancreatic cancer cell-derived stem cells (PANC-1-CSC, BXPC-3-CSC, and ASPC1-CSC), three liver cancer cell-derived stem cells (HepG2-CSC, MHCC97H-CSC, and SMMC7721-CSC), HEK-293T cells, 16 tumor cells (U251, U87, T98G, PANC1, BXPC3, ASPC1, HepG2, MHCC97H, SMMC7721, PC3, SKOV3, MDA-MB231, A549, HCT116, HEC-1B, MKN28), and differentiated glioblastoma stem cells (GSC-3diff and GSC-12diff) derived from GSC-3 and GSC-12 (all of the cells were provided by the Laboratory of Tumor Animal Model Preparation and Application Research, West China Hospital, Sichuan University) were inoculated into a 96-well plate at a concentration of 2×10^4 cells/well, and 100 μL of culture medium was then added to each well;
(§5) (5) 2) HEK-293T, GSC-3diff, GSC-12diff, and the 16 tumor cells were added with DMEM, 10% FBS, and 1% double antibody culture medium. Cancer stem cells (CSCs) were added with serum-free stem cell medium consisting of DMEM/F12, EGF (20 ng/mL), bFGF (20 ng/mL), B27 (1×), and 1% double antibody culture medium.
(§6) (6) Inoculated cells were put into a cell culture incubator for 24 hours, and after the cells were well adhered to the wall, the culture medium in the 96-well plate was discarded.
(§7) (7) 200 μL cannabicyclol and cannabicyclol derivatives solutions at different concentrations were added to the cultured cells.
(§8) (8) The experiment was set up with 3 replicates.
(§9) (9) The 96-well plate was placed in a cell culture incubator, and incubation was continued at 37° C. and 5% CO2 for 72 hours. Then, 100 μL of cannabicyclol and cannabicyclol derivative solution per well was discarded (100 μL of DMSO solvent was discarded for the control group), and 20 μL of LMTS (CellTiter AQueous Non-Radioactive Cell Proliferation Assay, #G3581) was mixed and continued to be placed in the cell incubator for 2 hours of incubation.
(§10) (10) The absorbance value at 490 nm was measured on an enzyme labeling apparatus, and the IC50 value was calculated.

U251 = assay: MTS cell viability assay, U251; conditions: for IC50: Homo sapiens, U-251, Table 8, tumor cells, preferred compounds, read-out: IC50 U251
Experimental: as §1, §2, §3, §4, §5, §6, §7, §8, §9, §10

[1] = MTS cell viability assay, HEK-293T (293T) normal cells; conditions: human
Experimental: as §1, §2, §3, §4, §5, §6, §7, §8, §9, §10

HEK-293T = assay: as above; conditions: Homo sapiens, HEK-293T; Table 8, normal cells, preferred compounds; read-out: IC50 293T
Experimental: as §1, §2, §3, §4, §5, §6, §7, §8, §9, §10

[2] = primary viability screening, 72 hours, MTS, test concentration not stated
[3] = HEK-293T (293T) normal cells, primary viability screening, 72 hours, MTS, test concentration not stated, read-out: Cell viability in 293T (%)

SMILES	IC50 (GSC-3 (3#-GSC))	Cell viability in 3#-GSC (%) (GSC-3 (3#-GSC); [2])	IC50 (U251)	Cell viability in U251 (%) (U251; [2])	viability at 72 h [1, 3]	IC50 (HEK-293T)	Cell viability in 3#-GSC (%) (GSC-3 (3#-GSC); 72 h)	selective anti-glioma stem cell viability (GSC-3 (3#-GSC))	Cell viability in U251 (%) (U251; human, 72 h)	viability at 72 h [1]
CCCCCc1cc(OC(=O)CCN(C)C)c2c(c1)OC1(C)CCC3C1C2C3(C)C (stereo not drawn) [Compound 9n]	7.79 µg/mL (≈ 18.8 µM)	32%	33.4 µg/mL (≈ 80.9 µM)	89%	≥ 100%	35.2 µg/mL (≈ 85 µM)				
CC12CCC3C1C(c1c(O)cc(-c4ccsc4)cc1O2)C3(C)C (stereo not drawn) [Compound 3t]	3 µg/mL (≈ 9.17 µM)		14 µg/mL (≈ 42.8 µM)			16.4 µg/mL (≈ 50.2 µM)	50%	weak selective anti-glioma stem cell viability	98%	≥ 100%
CCCCCc1cc2c(c(-c3ccccc3)c1)C1C3C(CCC3(C)O2)C1(C)C (stereo not drawn) [Compound 13b]	4.73 µg/mL (≈ 12.6 µM)		> 40 µg/mL			> 40 µg/mL	50%	both the viability and selectivity were significantly reduced	≥100%	75%
CCCCCc1cc(OC(=O)C(C)CC)c2c(c1)OC1(C)CCC3C1C2C3(C)C (stereo not drawn) [Compound 9a]	4.32 µg/mL (≈ 10.8 µM)	52%	> 40 µg/mL	≥100%	≥ 100%	> 40 µg/mL				
CCCCCc1cc(OC(=O)CN2CCOCC2)c2c(c1)OC1(C)CCC3C1C2C3(C)C (stereo not drawn) [Compound 9k]	5.37 µg/mL (≈ 12.2 µM)	43%	> 40 µg/mL	≥100%	≥ 100%	> 40 µg/mL				
CCCCCc1cc(OC(=O)CCN2CCOCC2)c2c(c1)OC1(C)CCC3C1C2C3(C)C (stereo not drawn) [Compound 9l]	2.9 µg/mL (≈ 6.37 µM)	32%	24.7 µg/mL (≈ 54.3 µM)	90%	93%	> 40 µg/mL				
CCCCCc1cc(OC(=O)CN(C)C)c2c(c1)OC1(C)CCC3C1C2C3(C)C (stereo not drawn) [Compound 9m]	5.44 µg/mL (≈ 13.6 µM)	42%	> 40 µg/mL	≥100%	≥ 100%	22.9 µg/mL (≈ 57.2 µM)				
CCCCCc1cc(OC(=O)CC)c2c(c1)OC1(C)CCC3C1C2C3(C)C (stereo not drawn) [Compound 9c]	9.32 µg/mL (≈ 25.2 µM)	28%	24.7 µg/mL (≈ 66.7 µM)	≥100%	≥ 100%	> 40 µg/mL		both the viability and selectivity were maintained		
